From patent US20070066674A1, “Tricyclic imidzopyridines for use as gastric secretion inhibitors” (Altana Pharma AG, priority 2003, published 2007)

test system: pentagastrin-stimulated acid secretion of the perfused rat stomach; assay: Secretion-inhibiting action on the perfused rat stomach; assay type: in vivo; details: dose 1 μmol/kg i.d., anesthetized CD rat, intraduodenal administration
Description: In Table A which follows, the influence of the compounds of the formula 1 according to the invention and of their optical antipodes of the formula 2 on the pentagastrin-stimulated acid secretion of the perfused rat stomach after intraduodenal administration in vivo is shown.
The abdomen of anesthetized rats (CD rat, female, 200-250 g; 1.5 g/kg i.m. urethane) was opened after tracheotomy by a median upper abdominal incision and a PVC catheter was fixed transorally in the esophagus and another via the pylorus such that the ends of the tubes just projected into the gastric lumen. The catheter leading from the pylorus led outward into the right abdominal wall through a side opening.
After thorough rinsing (about 50-100 ml), warm (37° C.) physiological NaCl solution was continuously passed through the stomach (0.5 ml/min, pH 6.8-6.9; Braun-Unita I). The pH (pH meter 632, glass electrode EA 147; φ=5 mm, Metrohm) and, by titration with a freshly prepared 0.01 N NaOH solution to pH 7 (Dosimat 665 Metrohm), the secreted HCl were determined in the effluent in each case collected at an interval of 15 minutes.
The gastric secretion was stimulated by continuous infusion of […] (=1.65 ml/h) of i.v. pentagastrin (left femoral vein) about 30 min after the end of the operation (i.e. after determination of 2 preliminary fractions). The substances to be tested were administered intraduodenally in a 2.5 ml/kg liquid volume 60 min after the start of the continuous pentagastrin infusion. The body temperature of the animals was kept at a constant 37.8-38° C. by infrared irradiation and heat pads (automatic, stepless control by means of a rectal temperature sensor).

| SMILES | Inhibition of acid secretion (%) |
| --- | --- |
| CNC(=O)c1cn2c(C)c(C)nc2c2c1CC[C@@H](c1ccccc1)O2 [Example 7, (9S)-2,3-Dimethyl-9-phenyl-7H-8,9-dihydro-pyrano[2,3-c]-imidazo[1,2-a]pyridine-6-carboxylic acid methylamide] | 100 |
| Cc1nc2c3c(c(C(=O)N(C)C)cn2c1C)CC[C@@H](c1ccccc1F)O3 [Example 10, (9S)-9-(2-Fluorophenyl)-2,3-dimethyl-7H-8,9-dihydro-pyrano[2,3-c]-imidazo[1,2-a]pyridine-6-carboxylic acid dimethylamide] | 100 |
| Cc1ccccc1[C@H]1CCc2c(C(=O)N(C)C)cn3c(C)c(C)nc3c2O1 [I, (9R)-2,3-Dimethyl-9-(2-methylphenyl)-7H-8,9-dihydro-pyrano[2,3-c]-Imidazo[1,2-a]pyridine-6-carboxylic acid dimethylamide] | <50 |
| Cc1ccccc1[C@@H]1CCc2c(C(=O)N(C)C)cn3c(C)c(C)nc3c2O1 [Example 9, (9S)-2,3-Dimethyl-9-(2-methylphenyl)-7H-8,9-dihydro-pyrano[2,3-c]-imidazo[1,2-a]pyridine-6-carboxylic acid dimethylamide] | 100 |
| Cc1nc2c3c(c(C(=O)N(C)C)cn2c1C)CC[C@H](c1ccc(F)cc1)O3 [K, (9R)-9-(4-Fluorophenyl)-2,3dimethyl-7H-8,9-dihydro-pyrano[2,3-c]-imidazo[1,2-a]pyridine-6-carboxylic acid dimethylamide] | <40 |
| Cc1nc2c3c(c(C(=O)N(C)C)cn2c1C)CC[C@@H](c1ccccc1)O3.O=C(O)C(O)C(O)C(=O)O [Example 1, (9S)-2,3-Dimethyl-9-phenyl-7H8,9dihydro-pyrano[2,3-c]-imidazo[1,2-a]pyridine-6-carboxylic acid dimethylamide (R,R)-tartrate] | 100 |
| Cc1nc2c3c(c(C(=O)N(C)C)cn2c1C)CC[C@@H](c1ccccc1)O3 [Example 2, (9S)-2,3-Dimethyl-9-phenyl-7H-8,9-dihydro-pyrano[2,3c]-imidazo[1,2-a]pyridine-6-carboxylic acid dimethylamide] | 100 |
| Cc1nc2c3c(c(C(=O)N(C)C)cn2c1C)CC[C@@H](c1ccc(F)cc1)O3 [Example 11, (9S)-9-(4-Fluorophenyl)-2,3-dimethyl-7H-8,9-dihydro-pyrano[2,3-c]-imidazo[1,2-a]pyridine-6-carboxylic acid dimethylamide] | 100 |

same assay, conditions: dose 2 μmol/kg i.d., anesthetized CD rat, intraduodenal administration

| SMILES | Inhibition of acid secretion (%) |
| --- | --- |
| Cc1nc2c3c(c(C(N)=O)cn2c1C)CC[C@@H](c1ccccc1)O3 [Example 8, (9S)-2,3-Dimethyl-9-phenyl-7H-8,9-dihydro-pyrano[2,3c]-imidazo[1,2-a]pyridine-6-carboxylic acid amide] | 100 |

same assay, conditions: dose 3 μmol/kg i.d., anesthetized CD rat, intraduodenal administration

| SMILES | Inhibition of acid secretion (%) |
| --- | --- |
| Cc1nc2c3c(c(C(=O)N(C)C)cn2c1C)CC[C@H](c1ccccc1)O3 [B, (9R)-2,3-Dimethyl-9-phenyl-7H-8,9-dihydro-pyrano[2,3-c]-imidazo[1,2-a]pyridine-6-carboxylic acid dimethylamide] | <40 |
| CCc1c(C)nc2c3c(c(C(=O)N(C)C)cn12)CC[C@@H](c1ccccc1)O3 [Example 5, (9S)-3-Ethyl-2-methyl-9-phenyl-7H-8,9-dihydro-pyrano[2,3c]-imidazo[1,2-a]pyridine-6-carboxylic acid dimethylamide] | >70 |
| Cc1nc2c3c(c(C(=O)N4CCCC4)cn2c1C)CC[C@@H](c1ccccc1)O3 [Example 6, (9S)-(2,3-Dimethyl-9-phenyl-7H-8,9-dihydro-pyrano[2,3c]-imidazo[1,2-a]pyridin-6-yl)-pyrrolidin-1-yl methanone] | 100 |
| Cc1nc2c3c(c(C(N)=O)cn2c1C)CC[C@H](c1ccccc1)O3 [H, (9R)-2,3-Dimethyl-9-phenyl-7H-8,9-dihydro-pyrano[2,3-c]-imidazo[1,2-a]pyridine-6-carboxylic acid amide] | <40 |
| Cc1nc2c3c(c(C(=O)N(C)C)cn2c1C)CC[C@@H](c1cccs1)O3 [Example 12, (9S)-2,3-Dimethyl-9-thiophen-2-yl-7H-8,9-dihydro-pyrano[2,3-c]-imidazo[1,2-a]pyridine-6-carboxylic acid dimethylamide] | 100 |
| Cc1nc2c3c(c(C(=O)N4CCCC4)cn2c1C)CC[C@H](c1ccccc1)O3 [F, (9R)-(2,3-Dimethyl-9-phenyl-7H-8,9-dihydro-pyrano[2,3-c]-imidazo[1,2-a]pyridin-6-yl)-pyrrolidin-1-yl methanone] | <40 |
| CNC(=O)c1cn2c(C)c(C)nc2c2c1CC[C@H](c1ccccc1)O2 [G, (9R)-2,3-Dimethyl-9-phenyl-7H-8,9-dihydro-pyrano[2,3-c]-imidazo[1,2-a]pyridine-6-carboxylic acid methylamide] | <40 |
| CCc1c(C)nc2c3c(c(C(=O)N(C)C)cn12)CC[C@H](c1ccccc1)O3 [E, (9R)-3-Ethyl-2-methyl-9-phenyl-7H-8,9-dihydro-pyrano[2,3-c]-imidazo[1,2-a]pyridine-6-carboxylic acid dimethylamide] | <30 |
| Cc1nc2c3c(c(C(=O)N(C)C)cn2c1C)CC[C@H](c1ccccc1F)O3 [J, (9R)-9-(2-Fluorophenyl)-2,3-dimethyl-7H-8,9-dihydro-pyrano[2,3c]-imidazo[1,2-a]pyridine-6-carboxylic acid dimethylamide] | <50 |
| Cc1nc2c3c(c(C(=O)N(C)C)cn2c1Br)CC[C@@H](c1ccccc1)O3 [Example 4, (9S)-3Bromo-2-methyl-9-phenyl-7H-8,9-dihydro-pyrano[2,3-c]-imidazo[1,2-a]pyridine-6-carboxylic acid dimethylamide] | >60 |
| Cc1nc2c3c(c(C(=O)N(C)C)cn2c1C)CC[C@H](c1ccccc1)O3.O=C(O)C(O)C(O)C(=O)O [A, (9R)2,3-Dimethyl-9-phenyl-7H-8,9-dihydro-pyrano[2,3-c]-imidazo[1,2-a]pyridine-6-carboxylic acid dimethylamide (S,S)-tartrate] | <40 |
| Cc1nc2c3c(c(C(=O)N(C)C)cn2c1Br)CC[C@H](c1ccccc1)O3 [D, (9R)-3-Bromo-2-methyl-9-phenyl-7H-8,9-dihydro-pyrano[2,3-c]-imidazo[1,2-a]pyridine-6-carboxylic acid dimethylamide] | <40 |
| COCc1cn2c(C)c(C)nc2c2c1CC[C@@H](c1ccccc1)O2 [Example 13, (9S)-6-Methoxymethyl-2,3-dimethyl-9-phenyl-7H-8,9-dihydro-pyrano[2,3-c]-imidazo[1,2-a]pyridine] | 100 |

same assay, conditions: dose 6 μmol/kg i.d., anesthetized CD rat, intraduodenal administration

| SMILES | Inhibition of acid secretion (%) |
| --- | --- |
| Cc1nc2c3c(c(C(=O)N(C)C)cn2c1CO)CC[C@@H](c1ccccc1)O3 [Example 3, (9S)-3-Hydroxymethyl-2-methyl-9-phenyl-7H-8,9-dihydro-pyrano[2,3-c]-imidazo[1,2-a]pyridine-6-carboxylic acid dimethylamide] | >50 |
| Cc1nc2c3c(c(C(=O)N(C)C)cn2c1CO)CC[C@H](c1ccccc1)O3 [C, (9R)-3-Hydroxymethyl-2-methyl-9-phenyl-7H-8,9-dihydro-pyrano[2,3c]-imidazo[1,2-a]pyridine-6-carboxylic acid dimethylamide] | <30 |
